# Results taken from patent US12290565B2, “Methods of using anti-PSGL-1 antibodies in combination with JAK inhibitors to treat T-cell mediated inflammatory diseases or cancers” (AltruBio Inc., priority 2021, dated 2025).
# pEC50: −log10 of the molar value. Where two headings read alike, the source gives them in different places.
# Legend:
# [1] = test system: xenogeneic GvHD in ASID mice engrafted with human PBMCs; experiment: Xenogeneic graft-versus-host disease (GvHD) mouse model, survival; assay type: in vivo; details: ruxolitinib 45 mg/kg oral twice daily 15 days and/or 15A7H 10 mg/kg i.v. every 3 to 4 days, 5 doses
# Description: 8-9 weeks old female Advanced Severe Immuno-Deficiency (ASID) mice (NOD.Cg-Prkdc^scidIl2rg^tm1Wjl/YckNarl; NLAC NARLabs Taiwan) received a total body irradiation dose of 2.0 Gy and were engrafted with 3×10^6 human PBMCs by tail vein injection at 24 hours post irradiation. The mice were kept under pathogen-free conditions and reared under standardized methods as temperature set at 22±1° C. with a 12-hour daylight/dark cycle and full access to food and water. Experimental animals were randomly divided into treatment groups after receiving a minimum of 3 days of acclimatization to the environment.
# Xenogeneic GvHD (xGvHD) was induced in ASID mice receiving 3×10^6 human PBMCs (n=5-7 per group). Post 72 hours of human PBMC engraftment, ruxolitinib at 45 mg/kg or vehicle was orally administered twice daily for 15 days, as well as anti-PSGL-1 15A7H antibody at 10 mg/kg or vehicle was intravenously administered every 3 to 4 days for total 5 doses. Mice were assessed for survival daily. The time of the treatment initiated was designated as Day 1.
# activated T cells [2] = experiment: Fixed-ratio combination cytotoxicity assay, ruxolitinib + 15A7H (Chou-Talalay, Calcusyn); assay type: cell-based, human; details: for pEC50: Homo sapiens, T-cell; for DRIRUXO (Dose-Reduction Index): EC50 level
# Description: T cell stimulation was achieved through Phytohemagglutinin-L (PHA) treatment prior to the apoptosis assays described below. In brief, human blood samples used in the study were obtained from heathy human donors. […] The buffy coat layer containing mononuclear cells was collected and washed 3 times with phosphate-buffered saline (PBS) to minimize platelet contamination.
# Activated T cells were seeded in 96-well plates at 1-1.5×10^5 cells/mL and were treated with ruxolitinib and antibody 15A7H alone, or in combination at fixed concentration ratios. For the combination of ruxolitinib and antibody 15A7H, fixed ratios at 3.3:1 and 1.1:1 were tested on T cells from four donors. In addition, a fixed ratio of ruxolitinib and antibody 15A7H of 0.37:1 was tested on T cells from two donors.
# Cell apoptosis was measured using an Annexin-V FITC Apoptosis Detection Kit (Strong Biotech, AVK250), according to the manufacturer's instructions.
# Results were expressed as apoptosis fractions (fraction affected), based on the measured fluorescence counts of treated samples, compared with that of untreated controls. Seven diagonals representing various dose-effect curves with fixed drug ratios were used to measure the combination indexes (CI) for each of the combinations with Calcusyn software (Biosoft). The combinatorial effect was defined as “synergistic”, “additive” or “antagonistic” when CI was <1, 1 and >1, respectively.
# activated T cells [3] = experiment: T cell apoptosis assay (Annexin V/PI FACS), 15A7H and/or ruxolitinib; assay type: cell-based, human; details: ruxolitinib alone, 0.122-10 μM, 48 hours
# Description: T cell stimulation was achieved through Phytohemagglutinin-L (PHA) treatment prior to the apoptosis assays described below. In brief, human blood samples used in the study were obtained from heathy human donors. Peripheral blood mononuclear cells (PBMCs) were freshly isolated from whole blood by Ficoll-Hypaque gradient centrifugation (Ficoll-Paque PLUS, GE Healthcare, Cat #17-1440-03) at 2400 revolutions per minute (rpm) for 15 minutes at room temperature. The buffy coat layer containing mononuclear cells was collected and washed 3 times with phosphate-buffered saline (PBS) to minimize platelet contamination. […]
# Fluorescence-activated cell sorting (FACS) analysis using the Annexin V/propidium iodide (PI) staining method was used to determine the apoptotic rate in drug- and control-treated cells. […]
# Samples were run on a flow cytometer (BD LSR scanner; BD Biosciences, San Diego), and cell viability and apoptosis were calculated using a quadrant on the Annexin-V-FITC/PI histogram. Living cells were identified as those negatively stained for both fluorescence dyes, early apoptotic cells were identified as those only Annexin-V-FITC-positive, necrotic cells were identified as those only PI-positive, and late apoptotic cells were identified as those positively stained for both fluorescence dyes. […]
compound,measurement,setting,value
"N#CC[C@H](C1CCCC1)n1cc(-c2ncnc3[nH]ccc23)cn1 [RUXO, (R)-3-(4-(7H-pyrrolo[2,3-d]pyrimidin-4-yl)-1 H-pyrazol-1-yl)-3-cyclopentylpropanenitrile]",effect on xenogeneic GVHD induced by human lymphocytes,[1],ameliorated xenogeneic GVHD
same,pEC50,"activated T cells [2]; donor N084, RUXO + 15A7H, ratio 1.1:1, read-out: EC50RUXO Combination Treatment",6.70
same,pEC50,"activated T cells [2]; donor N084, RUXO + 15A7H, ratio 3.3:1, read-out: EC50RUXO Combination Treatment",6.43
same,pEC50,"activated T cells [2]; donor N084, RUXO alone, section ratio 1.1:1, read-out: EC50RUXO Single Treatment",5.37
same,pEC50,"activated T cells [2]; donor N084, RUXO alone, section ratio 3.3:1, read-out: EC50RUXO Single Treatment",5.37
same,pEC50,"activated T cells [2]; donor N089, RUXO + 15A7H, ratio 1.1:1, read-out: EC50RUXO Combination Treatment",6.40
same,pEC50,"activated T cells [2]; donor N089, RUXO + 15A7H, ratio 3.3:1, read-out: EC50RUXO Combination Treatment",6.32
same,pEC50,"activated T cells [2]; donor N089, RUXO alone, section ratio 1.1:1, read-out: EC50RUXO Single Treatment",5.63
same,pEC50,"activated T cells [2]; donor N089, RUXO alone, section ratio 3.3:1, read-out: EC50RUXO Single Treatment",5.70
same,pEC50,"activated T cells [2]; donor N102, RUXO + 15A7H, ratio 0.37:1, read-out: EC50RUXO Combination Treatment",6.78
same,pEC50,"activated T cells [2]; donor N102, RUXO + 15A7H, ratio 1.1:1, read-out: EC50RUXO Combination Treatment",6.30
same,pEC50,"activated T cells [2]; donor N102, RUXO + 15A7H, ratio 3.3:1, read-out: EC50RUXO Combination Treatment",5.94
same,pEC50,"activated T cells [2]; donor N102, RUXO alone, section ratio 0.37:1, read-out: EC50RUXO Single Treatment",5.00
same,pEC50,"activated T cells [2]; donor N102, RUXO alone, section ratio 1.1:1, read-out: EC50RUXO Single Treatment",5.00
same,pEC50,"activated T cells [2]; donor N102, RUXO alone, section ratio 3.3:1, read-out: EC50RUXO Single Treatment",5.00
same,pEC50,"activated T cells [2]; donor N103, RUXO + 15A7H, ratio 0.37:1, read-out: EC50RUXO Combination Treatment",6.57
same,pEC50,"activated T cells [2]; donor N103, RUXO + 15A7H, ratio 1.1:1, read-out: EC50RUXO Combination Treatment",6.26
same,pEC50,"activated T cells [2]; donor N103, RUXO + 15A7H, ratio 3.3:1, read-out: EC50RUXO Combination Treatment",6.00
same,pEC50,"activated T cells [2]; donor N103, RUXO alone, section ratio 0.37:1, read-out: EC50RUXO Single Treatment",5.04
same,pEC50,"activated T cells [2]; donor N103, RUXO alone, section ratio 1.1:1, read-out: EC50RUXO Single Treatment",5.04
same,pEC50,"activated T cells [2]; donor N103, RUXO alone, section ratio 3.3:1, read-out: EC50RUXO Single Treatment",5.04
same,DRIRUXO (Dose-Reduction Index),"activated T cells [2]; donor N084, RUXO + 15A7H, ratio 1.1:1",20.9884
same,DRIRUXO (Dose-Reduction Index),"activated T cells [2]; donor N084, RUXO + 15A7H, ratio 3.3:1",11.3242
same,DRIRUXO (Dose-Reduction Index),"activated T cells [2]; donor N089, RUXO + 15A7H, ratio 1.1:1",6.0012
same,DRIRUXO (Dose-Reduction Index),"activated T cells [2]; donor N089, RUXO + 15A7H, ratio 3.3:1",4.1685
same,DRIRUXO (Dose-Reduction Index),"activated T cells [2]; donor N102, RUXO + 15A7H, ratio 0.37:1",61.2797
same,DRIRUXO (Dose-Reduction Index),"activated T cells [2]; donor N102, RUXO + 15A7H, ratio 1.1:1",20.2269
same,DRIRUXO (Dose-Reduction Index),"activated T cells [2]; donor N102, RUXO + 15A7H, ratio 3.3:1",8.7676
same,DRIRUXO (Dose-Reduction Index),"activated T cells [2]; donor N103, RUXO + 15A7H, ratio 0.37:1",34.4195
same,DRIRUXO (Dose-Reduction Index),"activated T cells [2]; donor N103, RUXO + 15A7H, ratio 1.1:1",16.5574
same,DRIRUXO (Dose-Reduction Index),"activated T cells [2]; donor N103, RUXO + 15A7H, ratio 3.3:1",9.0902
same,increase in apoptosis over background levels,activated T cells [3],minimal or no increases in apoptosis over background levels
